{"source": "patent US20140228435A1", "about": "“COMPOSITION AND METHOD OF SYNTHESIZING A BIOMOLECULE AND ITS THERAPEUTICS APPLICATIONS” (priority 2013, published 2014)", "key": {"[1]": {"system": "fatty tissue", "test": "Triceps skin fold (TSF) thickness by caliper at right mid-upper arm, one-year volunteer trial", "type": "in vivo, human volunteers", "experimental": "(§1) According to an embodiment of the embodiments herein, N(omega)′-protonated L-arginine was chemically converted into J-Factor ex-vivo. To prevent synthetic J-factor from damaging the alimentary canal after oral administration, it was formulated at a pH value that is safe for the canal like 7.0 which is the safest pH. Then, converted/synthetic produced ex-vivo J-Factor was orally administrated to a small group of 11 volunteers for one year. Each volunteers were given 0.5 mg per 10 days (=1.5 mg/month) and photographs were taken in each case to record the changes in their faces and heads.\n(§2) In addition, to eliminate other factors probably influencing results during the trial, they were prevented from exercising and changing previous food schedule such as meat except the J-Factor. Their intake of meat was at least 200 gram per day in the food schedule before the trial and wouldn't change during the trial. Because the amount of N(omega)′-protonated L-arginine in raw meat is more than 1%, their intake of N(omega)′-protonated L-arginine was more than 60000 mg per month through meat without change before and during the trial, which was more than 40000 times the J-Factor intake. Anyway, one-third of N (omega)′-protonated L-arginine is chemically converted into J-Factor and they can't separated from each other. Thus, regardless of food L-arginine, Each volunteer took N(omega)′-protonated L-arginine 3 mg per month together with J-Factor that was less than 1/20000 times the N(omega)′-protonated L-arginine intake through meat without change before and during the trial. Therefore, the physical changes observed in the volunteers weren't caused by N(omega)′-protonated L-arginine.\nAnyway, the triceps skin fold (TSF) thickness was measured in millimetres with the caplier at the mid-back of the right mid-upper arm [mid-point between the tip of the shoulder and the tip of the elbow (olecranon process and the acromium)] to evaluate the change in fatty tissue during the trial. The amounts measured and calculated are listed below: […]"}, "[2]": {"system": "IGF-1mRNA", "test": "Expression of IGF-1mRNA in fatty tissue of mid-upper arm by real-time RT-PCR", "type": "in vivo, human volunteers", "experimental": "as §1\nas §2, with “Therefore, the physical changes observed in the volunteers weren't caused by N(omega)′-protonated L-arginine.” left out\nIt's clear that any composition that stimulates the synthesis and secretion of autocrine-paracrine IGF-1 performs it only through increasing the expression of IGF-1mRNA in the cell. Therefore, the expression of IGF-1mRNA was measured in the fatty tissue at the mid-back of the mid-upperarm of the volunteers by real-time RT-PCR (Reverse transcription-polymerase chain reaction) at the beginning and end of the trial and the following numbers were obtained: […]"}, "[3]": {"test": "Physical changes observed in volunteers after one year (photographs of faces and heads)", "type": "in vivo, human volunteers", "details": "each volunteer after one year of oral J-Factor", "experimental": "as §1, §2"}, "[4]": {"test": "Acid dissociation constants (pKa), with van't Hoff temperature calculation", "type": "physicochemical", "experimental": "Furthermore, the deprotonation of the guanidinium and N(delta)-protonated diaminomethyleneamino groups is endothermic and reversible. Therefore the results are as follows. • 1—At pH less than 7.48 together with 25° C. or less, the concentration of their deprotonated form in the side chain is too little and insignificant to be chemically considered. • 2—Under physiological conditions (pH 7.40 and 37° C.) of a living body, the concentration of L-2-amino-5-diaminomethyleneamino-pentanoic acid not protonated in the side chain and a extremely weak stimulator for autocrine-paracrine IGF-1, is too little and insignificant to stimulates synthesis and secretion of the IGF-1. • 3—At pH less than 7.48 together with 25° C. or less and under physiological conditions (pH 7.40 and 37° C.), 1-arginine and L-2-amino-5-diaminomethyleneamino-pentanoic acid is practically as protonated in the side chain.\nIn addition, it has a Pka of 8.39 in the protonated 2-amino group at 37° C. calculated based on the integrated form of the van't Hoff equation and ΔH°=43.8 kj/mol=[…] in the deprotonation of the protonated 2-amino group. Consequently, with respect to/regarding the Henderson-Hasselbalch equation, the formula of the J Factor is as follows: • 1—At 25° C., the dominant structural formula of J-Factor at pH more than 2.17 and less than 9.04 is as follows:\nFurther, in the conversion of N(omega)′-protonated L-arginine to Larginine and a proton, K (equilibrium constant)=Ka (acid dissociation constant). Consequently, the integrated form of the van't Hoff equation is changed as follows:\nLog(Ka2/Ka1)=(ΔH°/R)(1/T1−1/T2)\nwherein Ka1 is the acid dissociation constant at absolute temperature T1, Ka2 is the acid dissociation constant at absolute temperature T2. Now, the calculated ratios of Ka2 at 100° C., 75° C., 50° C., 37° C. and 30° C. to Ka1 at 25° C. and their pKa's in the conversion are given below, where pKa is a minus the logarithm of the acid dissociation constant. • 1—At 100° C.: […]"}, "[5]": {"details": "cited from earlier work"}, "[6]": {"test": "Complications and safety, synthetic J-Factor in the 11 volunteers compared with biosynthetic GH", "type": "in vivo, human volunteers", "experimental": "as §1\nIn fact, all of the above mentioned changes help in preventing or limiting the aging signs. The advantage of using ex-vivo synthesized J-Factor of the embodiments herein when compared to biosynthetic GH is shown in the comparative table below: […]"}, "[7]": {"system": "eye's central vision", "test": "Eye's central vision examined with the E-chart, one-year volunteer trial", "type": "in vivo, human volunteers", "set-up": "scale not given here", "details": "one value per volunteer", "experimental": "as §1, §2\nEye' central vision was examined with the E-chart and the following numbers were measured and concluded: […]"}, "[8]": {"system": "muscle (muscular hypertrophy)", "test": "Mid-upper arm circumference (MUAC) and muscle circumference (MUAMC), muscular hypertrophy, one-year volunteer trial", "type": "in vivo, human volunteers", "experimental": "as §1, §2\nIt's derived in cm from the MUAC (mid-upper arm circumference) in cm and the TSF (triceps skin fold) in mm according to the formula “MUAMC=MUAC−(π×TSF/10)”. Finally, the following numbers were measured and concluded: […]"}, "[9]": {"test": "Second trial (second year): J-Factor withdrawn, unconverted N(omega)′-protonated L-arginine given", "type": "in vivo, human volunteers", "details": "1.5 mg per 10 days", "experimental": "After the first year, the applicant withdrew J-Factor and would give the initial N(omega)′protonated L-arginine (reactant) not converted to J-Factor 1.5 mg per 10 days to each volunteer without any other changes and wouldn't make them aware, in order to better compare the reactant and J-Factor."}, "[10]": {"details": "biosynthetic GH, comparison; cited from earlier work"}, "[11]": {"details": "sum of 11 volunteers, Start to End"}, "[12]": {"details": "Start to End (one year), one value per volunteer"}}, "note": "Values joined by “and” are separate entries in the source; they are usually repeats but may differ in a detail not shown here. Equal entries are not always repeated. Where two headings read alike, the source gives them in different places."}
{"compound": "NC(N)=NCCCC(N)C(=O)O", "note": "[J-Factor, N(delta)-protonated L-2-amino-5-diaminomethyleneamino-pentanoic acid]", "values": [{"measurement": "TSF (mm) End", "setting": "[1]; J-Factor 0.5 mg per 10 days orally, End = one year after the start, one value per volunteer (11)", "result": "20 mm and 3 mm (2×) and 7 mm and 10 mm (2×) and 12 mm and 14 mm and 13 mm (2×) and 17 mm"}, {"measurement": "TSF (mm) Decrease", "setting": "[1]; Start to End (one year), J-Factor 0.5 mg per 10 days orally, one value per volunteer", "result": "18 mm and 3 mm and 4 mm (2×) and 6 mm and 5 mm (2×) and 7 mm (3×) and 19 mm"}, {"measurement": "TSF (mm) Decrease, sum", "setting": "[1]; [11]", "result": 85, "unit": "mm"}, {"measurement": "TSF Decrease, percent of sum", "setting": "[1]; [11]", "result": "(41.7%)"}, {"measurement": "TSF (mm) End, sum", "setting": "[1]; sum of 11 volunteers, one year after the start (Start sum 207)", "result": 122, "unit": "mm"}, {"measurement": "IGF-1 mRNA increase", "setting": "[2]; [12]", "result": "yes"}, {"measurement": "IGF-1 production", "setting": "[2]; conclusion from one-year trial with ex-vivo synthesized J-Factor", "result": "stimulated IGF-1 production"}, {"measurement": "IGF-1 mRNA (copy/mg) End", "setting": "[2]; fatty tissue at mid-back of mid-upper arm, one year after the start, one value per volunteer", "result": "1.8 × 10^7 copy/mg and 7.7 × 10^7 copy/mg and 1.2 × 10^10 copy/mg and 9.2 × 10^6 copy/mg and 7.2 × 10^8 copy/mg and 6.0 × 10^8 copy/mg and 2.1 × 10^9 copy/mg and 1.0 × 10^10 copy/mg and 5.2 × 10^7 copy/mg and 6.3 × 10^6 copy/mg and 1.1 × 10^9 copy/mg"}, {"measurement": "change in fatty tissue e.g. in abdomen", "setting": "[3]", "result": "decrease in fatty tissue e.g. in abdomen"}, {"measurement": "eye's central vision", "setting": "[3]", "result": "improvement in eye's central vision"}, {"measurement": "hair growth", "setting": "[3]", "result": "hair growth"}, {"measurement": "muscular hypertrophy", "setting": "[3]", "result": "muscular hypertrophy"}, {"measurement": "tone and color of facial skin", "setting": "[3]", "result": "improved tone and color of facial skin"}, {"measurement": "pKa", "setting": "[4]; pKa of guanidinium / N(delta)-protonated diaminomethyleneamino group", "result": 11.7}, {"measurement": "pKa", "setting": "[4]; pKa of protonated 2-amino group", "result": 8.39}, {"measurement": "pKa of carboxyl group", "setting": "[5]; room temperature (25° C.)", "result": 2.17}, {"measurement": "pKa of guanidinium / N(delta)-protonated diaminomethyleneamino group", "setting": "[5]; room temperature (25° C.)", "result": 12.48}, {"measurement": "pKa of protonated 2-amino group", "setting": "[5]; room temperature (25° C.)", "result": 9.04}, {"measurement": "complications such as joint swelling, carpal tunnel syndrome or joint pain", "setting": "[6]; in the 11 volunteers", "result": "invention showed no complications"}, {"measurement": "antigenicity", "setting": "[6]; synthetic J-Factor", "result": "Non-antigenic"}, {"measurement": "diabetogenicity", "setting": "[6]; synthetic J-Factor", "result": "Non-diabetogenic"}, {"measurement": "Left Eye' central vision increase", "setting": "[7]; Start to End (one year)", "result": "ZERO (2×) and 1 (4×) and 9 and 3 (2×) and 2 (2×)"}, {"measurement": "Right Eye' central vision increase", "setting": "[7]; Start to End (one year)", "result": "ZERO (3×) and 1 (2×) and 3 and 2 (4×) and 4"}, {"measurement": "Left Eye' central vision End", "setting": "[7]; one year after the start", "result": "10 (8×) and 9 and 3 and 5"}, {"measurement": "Right Eye' central vision End", "setting": "[7]; one year after the start", "result": "10 (8×) and 8 and 6 and 3"}, {"measurement": "MUAMC (cm) End", "setting": "[8]; MUAMC=MUAC−(π×TSF/10), one year after the start, one value per volunteer", "result": "21.2 cm and 24.7 cm and 28.1 cm and 29.5 cm and 19.9 cm and 27.7 cm and 26.9 cm and 27.2 cm and 24.1 cm and 24.0 cm and 21.6 cm"}, {"measurement": "MUAMC (cm) increase", "setting": "[8]; [12]", "result": "1.7 cm and 1.3 cm and 2.0 cm (2×) and 2.1 cm (2×) and 1.1 cm and 2.7 cm and 1.8 cm and 2.8 cm and 2.4 cm"}, {"measurement": "MUAC (cm) End", "setting": "[8]; right arm, one year after the start, J-Factor 0.5 mg per 10 days orally, one value per volunteer", "result": "27.5 cm and 25.6 cm and 29.0 cm and 31.7 cm and 23.0 cm and 31.5 cm and 30.0 cm and 31.6 cm and 28.2 cm and 29.3 cm and 25.9 cm"}, {"measurement": "MUAMC (cm) increase, sum", "setting": "[8]; [11]", "result": 22.0, "unit": "cm"}, {"measurement": "MUAMC increase, percent of sum", "setting": "[8]; [11]", "result": "(8.7%)"}, {"measurement": "MUAMC (cm) End, sum", "setting": "[8]; sum of 11 volunteers, one year after the start (Start sum 252.9)", "result": 274.9, "unit": "cm"}]}
{"compound": "N=C(N)NCCCC(N)C(=O)O", "note": "[N(omega)′-protonated L-arginine]", "values": [{"measurement": "physical changes during the second year", "setting": "[9]; after withdrawal of J-Factor, volunteers not aware", "result": "the physical changes would return"}, {"measurement": "IGF-1 production", "setting": "[9]; conclusion from second trial", "result": "don't stimulated IGF-1 production"}, {"measurement": "pKa", "setting": "[4]; pKa of N(omega)′-protonated guanidino group", "result": 8.3}, {"measurement": "pKa of guanidinium / N(delta)-protonated diaminomethyleneamino group", "setting": "[5]; room temperature (25° C.)", "result": 12.48}]}
{"compound": "NC(N)=O", "note": "[protonated urea]", "values": [{"measurement": "pKa", "setting": "[5]; 25° C., protonated urea", "result": 0.18}]}
{"compound": "Biosynthetic GH: biosynthetic growth hormone, comparator in the advantage table", "values": [{"measurement": "antigenicity", "setting": "[10]", "result": "Antigenic"}, {"measurement": "complications", "setting": "[10]", "result": "Joint swelling Carpal tunnel"}, {"measurement": "diabetogenicity", "setting": "[10]", "result": "Diabetogenic"}]}
